This passage reports IC50 results from patent publication US20250059159A1, “PLPRO INHIBITORS” (SHANGHAI SYNERGY PHARMACEUTICAL SCIENCES CO., LTD., priority 2021, published 2025).

This assay addresses SARS-CoV-2 PLpro (Severe acute respiratory syndrome coronavirus 2 (2019-nCoV) (SARS-CoV-2), UniProt P0DTD1). The assay can be described thus: PLpro enzymatic inhibition assay (IC50 value determination). The format is biochemical. To be noted: 60 min preincubation for covalent inhibitors, 10 min for non-covalent, read-out: Inhibition of SARS-CoV-2 PLpro IC50 range.

Structures are written as SMILES. Bounds are passed on as bounds.

As to `COC(=O)/C(C#N)=C/CNC(=O)CNC(=O)CN(C1CCN(C(C)c2cccc3ccccc23)CC1)S(C)(=O)=O` (stereo not shown) [Compound 162, methyl (E)-2-cyano-4-(2-(2-(N-(1-(1-(naphthalen-1-yl)ethyl)piperidin-4-yl)methylsulfonamido)acetamido)acetamido)but-2-enoate], the IC50 (in general, the concentration needed to halve the response being measured) fell in the range of 100 to 1000 nM. As to `C#CCNC(=O)CNC(=O)CN(C1CCN(C(C)c2ccc(OC)c(Cl)c2)CC1)S(C)(=O)=O` (stereo not shown) [Compound 121, 2-(N-(1-(1-(3-chloro-4-methoxyphenyl)ethyl)piperidin-4-yl)methylsulfonamido)-N-(2-oxo-2-(prop-2-yn-1-ylamino)ethyl)acetamide], the IC50 is under 100 nM. With `C#CCNC(=O)CNC(=O)CN(C1CCN(C(C)c2cccc(C)c2C)CC1)S(C)(=O)=O` (stereo not shown) [Compound 99, 2-(N-(1-(1-(2,3-dimethylphenyl)ethyl)piperidin-4-yl)methylsulfonamido)-N-(2-oxo-2-(prop-2-yn-1-ylamino)ethyl)acetamide] the figure was under 100 nM.

Turning to `C#CCNC(=O)CNC(=O)CN(C1CCN(C(C)c2c(F)ccc3ccccc23)CC1)S(C)(=O)=O` (stereo not shown) [Compound 83, 2-(N-(1-(1-(2-fluoronaphthalen-1-yl)ethyl)piperidin-4-yl)methylsulfonamido)-N-(2-oxo-2-(prop-2-yn-1-ylamino)ethyl)acetamide], the IC50 is 100 to 1000 nM.

In the case of `C=CC(=O)NNC(=O)CN(C1CCN(C(C)c2cccc3ccccc23)CC1)S(C)(=O)=O` (stereo not shown) [Compound 168, N-(2-(2-acryloylhydrazineyl)-2-oxoethyl)-N-(1-(1-(naphthalen-1-yl)ethyl)piperidin-4-yl)methanesulfonamide], the IC50 is 1000 to 10000 nM.

In the case of `C#CCNC(=O)CNC(=O)CN(C(=O)CCC(=O)O)C1CCN(C(C)c2cccc3ccccc23)CC1` (stereo not shown) [Compound 118, 4-((1-(1-(naphthalen-1-yl)ethyl)piperidin-4-yl)(2-oxo-2-((2-oxo-2-(prop-2-yn-1-ylamino)ethyl)amino)ethyl)amino)-4-oxobutanoic acid], the half-maximal inhibitory concentration (IC50) is 1000 to 10000 nM. With `COC(=O)/C=C/CNC(=O)CNC(=O)CN(C(=O)C1CC1)C1CCN([C@H](C)c2cccc3ccccc23)CC1` [Compound 5, methyl (R,E)-4-(2-(2-(N-(1-(1-(naphthalen-1-yl)ethyl)piperidin-4-yl)cyclopropanecarboxamido)acetamido)acetamido)but-2-enoate], the concentration for half-maximal inhibition (IC50) was under 100 nM. With `C#CCNC(=O)CNC(=O)CN(C1CCN(C(C)c2ccc(OC)cc2Cl)CC1)S(C)(=O)=O` (stereo not shown) [Compound 139, 2-(N-(1-(1-(2-chloro-4-methoxyphenyl)ethyl)piperidin-4-yl)methylsulfonamido)-N-(2-oxo-2-(prop-2-yn-1-ylamino)ethyl)acetamide] the figure was 100 to 1000 nM; with `C#CCNC(=O)CCNC(=O)CN(C1CCN([C@H](C)c2cccc3ccccc23)CC1)S(C)(=O)=O` [Compound 57, (R)-3-(2-(N-(1-(1-(naphthalen-1-yl)ethyl)piperidin-4-yl)methylsulfonamido)acetamido)-N-(prop-2-yn-1-yl)propanamide], 100 to 1000 nM; with `C#CCNC(=O)CNC(=O)CN(C1CCN(C(C)c2cc(Cl)ccc2Cl)CC1)S(C)(=O)=O` (stereo not shown) [Compound 140, 2-(N-(1-(1-(2,5-dichlorophenyl)ethyl)piperidin-4-yl)methylsulfonamido)-N-(2-oxo-2-(prop-2-yn-1-ylamino)ethyl)acetamide], 100 to 1000 nM. In the case of `C#CCNC(=O)CNC(=O)CN(C1CCN(C(C)c2cccc3ccc(Cl)cc23)CC1)S(C)(=O)=O` (stereo not shown) [Compound 84, 2-(N-(1-(1-(7-chloronaphthalen-1-yl)ethyl)piperidin-4-yl)methylsulfonamido)-N-(2-oxo-2-(prop-2-yn-1-ylamino)ethyl)acetamide] it was under 100 nM. As to `C#CC(=O)NNC(=O)CN(C1CCN([C@H](C)c2cccc3ccccc23)CC1)S(C)(=O)=O` [Compound 147, (R)—N-(1-(1-(naphthalen-1-yl)ethyl)piperidin-4-yl)-N-(2-oxo-2-(2-propioloylhydrazineyl)ethyl)methanesulfonamide], the half-maximal inhibitory concentration (IC50) was under 100 nM.

`COC(=O)/C=C/CNC(=O)CNC(=O)[C@H](CN)NC1CCN([C@H](C)c2cccc3ccccc23)CC1` [Compound 26, methyl (E)-4-(2-((S)-3-amino-2-((1-((R)-1-(naphthalen-1-yl)ethyl)piperidin-4-yl)amino)propanamido)acetamido)but-2-enoate]: the IC50 lay within 100 to 1000 nM. In the case of `C#CCNC(=O)CNC(=O)CN(C1CCN(C(C)c2nccc3ccccc23)CC1)S(C)(=O)=O` (stereo not shown) [Compound 111, 2-(N-(1-(1-(isoquinolin-1-yl)ethyl)piperidin-4-yl)methylsulfonamido)-N-(2-oxo-2-(prop-2-yn-1-ylamino)ethyl)acetamide], the IC50 is 100 to 1000 nM. With `C#CCNC(=O)CNC(=O)CN(C1CCN(C(C)c2cccc3ccccc23)CC1)S(=O)(=O)N1CCN(CC(=O)O)CC1` (stereo not shown) [Compound 117] the figure was 1000 to 10000 nM; with `C#CCNC(=O)CNC(=O)CN(C1CCN(C(C)c2ccccc2F)CC1)S(C)(=O)=O` (stereo not shown) [Compound 129, 2-(N-(1-(1-(2-fluorophenyl)ethyl)piperidin-4-yl)methylsulfonamido)-N-(2-oxo-2-(prop-2-yn-1-ylamino)ethyl)acetamide], 100 to 1000 nM; with `C#CCNC(=O)CNC(=O)CN(C1CCN(C(C)c2ccc(OC)c3ccccc23)CC1)S(C)(=O)=O` (stereo not shown) [Compound 96, 2-(N-(1-(1-(4-methoxynaphthalen-1-yl)ethyl)piperidin-4-yl)methylsulfonamido)-N-(2-oxo-2-(prop-2-yn-1-ylamino)ethyl)acetamide], under 100 nM. For `C#CCNC(=O)CNC(=O)CN(C1CCN(C(C)c2ccccc2OC)CC1)S(C)(=O)=O` (stereo not shown) [Compound 130, 2-(N-(1-(1-(2-methoxyphenyl)ethyl)piperidin-4-yl)methylsulfonamido)-N-(2-oxo-2-(prop-2-yn-1-ylamino)ethyl)acetamide], the IC50 is under 100 nM.

In the case of `C#CCNC(=O)CCC(=O)CN(C1CCN([C@H](C)c2cccc3ccccc23)CC1)S(C)(=O)=O` [Compound 81, (R)-5-(N-(1-(1-(naphthalen-1-yl)ethyl)piperidin-4-yl)methylsulfonamido)-4-oxo-N-(prop-2-yn-1-yl)pentanamide], the concentration for half-maximal inhibition (IC50) lay within 1000 to 10000 nM. Regarding `C[C@H](c1cccc2ccccc12)N1CCC(N(CC(=O)NCC(=O)NCC=O)S(C)(=O)=O)CC1` [Compound 64, (R)-2-(N-(1-(1-(naphthalen-1-yl)ethyl)piperidin-4-yl)methylsulfonamido)-N-(2-oxo-2-((2-oxoethyl)amino)ethyl)acetamide], the half-maximal inhibitory concentration (IC50) is under 100 nM. Consider `C#CCNC(=O)CNC(=O)CN(C1CCN(C(CC)c2cccc3ccccc23)CC1)S(C)(=O)=O` (stereo not shown) [Compound 103, 2-(N-(1-(1-(naphthalen-1-yl)propyl)piperidin-4-yl)methylsulfonamido)-N-(2-oxo-2-(prop-2-yn-1-ylamino)ethyl)acetamide], for which the IC50 was 100 to 1000 nM. Turning to `C#CCNC(=O)CNC(=O)CN(C1CCN([C@H](C)c2cccc3ccccc23)CC1)S(=O)(=O)N1CCC(C(=O)OC)C1` (stereo partly drawn) [Compound 134, methyl 1-(N-(1-((R)-1-(naphthalen-1-yl)ethyl)piperidin-4-yl)-N-(2-oxo-2-((2-oxo-2-(prop-2-yn-1-ylamino)ethyl)amino)ethyl)sulfamoyl)pyrrolidine-3-carboxylate], the half-inhibitory concentration (IC50) was under 100 nM.
